Experimental data from ChEMBL document CHEMBL1201862, “PubChem BioAssay data set” (2004).
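Each compound was tested at five concentrations against cells in 96-well plates for 48 hours. Here, GI50 denotes the concentration required for 50% inhibition of growth.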 The source made the active and inactive calls. Rule as the data show it: active = GI50 up to about 1.1 µM and inactive = higher.

Assays:
Experiment in all cases: NCI tumour cell line growth inhibition, 48 h
[1] = system: 786-0
[2] = system: A498
[3] = system: A549
[4] = system: ACHN
[5] = system: CAKI-1
[6] = system: CCRF-CEM
[7] = system: COLO 205
[8] = system: DLD-1
[9] = system: DMS-114
[10] = system: DMS-273
[11] = system: EKVX
[12] = system: HCC 2998
[13] = system: HCT-116
[14] = system: HCT-15
[15] = system: HL-60
[16] = system: HOP-18
[17] = system: HOP-92
[18] = system: HT-29
[19] = system: IGROV-1
[20] = system: K562
[21] = system: KM-20L2
[22] = system: KM12
[23] = system: LOX IMVI
[24] = system: LXFL 529
[25] = system: M14
[26] = system: M19-MEL
[27] = system: MOLT-4
[28] = system: Malme-3M
[29] = system: NCI-H226
[30] = system: NCI-H23
[31] = system: NCI-H460
[32] = system: NCI-H522
[33] = system: OVCAR-3
[34] = system: OVCAR-4
[35] = system: OVCAR-5
[36] = system: OVCAR-8
[37] = system: RPMI-8226
[38] = system: RXF 393
[39] = system: RXF 631
[40] = system: SF-295
[41] = system: SF-539
[42] = system: SK-MEL-28
[43] = system: SK-MEL-2
[44] = system: SK-MEL-5
[45] = system: SK-OV-3
[46] = system: SN12C
[47] = system: SNB-19
[48] = system: SNB-75
[49] = system: SNB-78
[50] = system: SR
[51] = system: SW-620
[52] = system: TK-10
[53] = system: U-251
[54] = system: UACC-257
[55] = system: UACC-62
[56] = system: UO-31
[57] = system: XF498

Question: C#CCNC(=O)NCCCCC(NC(=O)OCc1ccccc1)C(=O)OCc1ccccc1 (configuration not stated) was tested. Which GI50 [1] did it give?
Answer: > 58.1 µM (inactive)

Question: And the GI50 [2]?
Answer: > 100 µM (inactive)

Question: And the GI50 [3]?
Answer: 72.4 µM (inactive)

Question: And the GI50 [4]?
Answer: 27.7 µM (inactive)

Question: What about the GI50 [5] of the same molecule?
Answer: > 59.4 µM (inactive)

Question: And the GI50 [6]?
Answer: 18.5 µM (inactive)

Question: And the GI50 [7]?
Answer: 17.7 µM (inactive)

Question: And the GI50 [8]?
Answer: 49 µM (inactive)

Question: And the GI50 [9]?
Answer: 27.7 µM (inactive)

Question: And the GI50 [10]?
Answer: > 71.3 µM (inactive)

Question: And the GI50 [11]?
Answer: > 100 µM (inactive)

Question: And the GI50 [12]?
Answer: 37.9 µM (inactive)

Question: And the GI50 [13]?
Answer: > 68.2 µM (inactive)

Question: And the GI50 [14]?
Answer: > 86.5 µM

Question: And the GI50 [15]?
Answer: 18 µM (inactive)

Question: And the GI50 [16]?
Answer: > 100 µM (inactive)

Question: What about the GI50 [17] of the same molecule?
Answer: > 72.4 µM (inactive)

Question: What about the GI50 [18] of the same molecule?
Answer: 75.3 µM (inactive)

Question: What about the GI50 [19] of the same molecule?
Answer: > 100 µM (inactive)

Question: And the GI50 [20]?
Answer: > 66.2 µM (inactive)

Question: And the GI50 [21]?
Answer: > 100 µM (inactive)

Question: And the GI50 [22]?
Answer: 29.8 µM (inactive)

Question: What about the GI50 [23] of the same molecule?
Answer: 39.1 µM (inactive)

Question: What about the GI50 [24] of the same molecule?
Answer: 40.3 µM (inactive)

Question: And the GI50 [25]?
Answer: 37.6 µM (inactive)

Question: And the GI50 [26]?
Answer: 38.7 µM (inactive)

Question: And the GI50 [27]?
Answer: 22.2 µM (inactive)

Question: And the GI50 [28]?
Answer: > 100 µM (inactive)

Question: And the GI50 [29]?
Answer: > 100 µM (inactive)

Question: What about the GI50 [30] of the same molecule?
Answer: > 64.3 µM (inactive)

Question: What about the GI50 [31] of the same molecule?
Answer: 52.2 µM (inactive)

Question: And the GI50 [32]?
Answer: 22.3 µM (inactive)

Question: What about the GI50 [33] of the same molecule?
Answer: 59.7 µM (inactive)

Question: What about the GI50 [34] of the same molecule?
Answer: > 78.3 µM (inactive)

Question: What about the GI50 [35] of the same molecule?
Answer: > 100 µM (inactive)

Question: What about the GI50 [36] of the same molecule?
Answer: 48.4 µM (inactive)

Question: And the GI50 [37]?
Answer: 21.2 µM (inactive)

Question: What about the GI50 [38] of the same molecule?
Answer: > 100 µM (inactive)

Question: And the GI50 [39]?
Answer: > 58.5 µM (inactive)

Question: And the GI50 [40]?
Answer: > 100 µM (inactive)

Question: What about the GI50 [41] of the same molecule?
Answer: > 60.5 µM (inactive)

Question: And the GI50 [42]?
Answer: > 100 µM (inactive)

Question: And the GI50 [43]?
Answer: > 96.2 µM (inactive)

Question: And the GI50 [44]?
Answer: > 100 µM (inactive)

Question: And the GI50 [45]?
Answer: > 100 µM (inactive)

Question: And the GI50 [46]?
Answer: > 83.8 µM (inactive)

Question: What about the GI50 [47] of the same molecule?
Answer: > 100 µM (inactive)

Question: And the GI50 [48]?
Answer: > 72.4 µM (inactive)

Question: And the GI50 [49]?
Answer: > 80.9 µM (inactive)

Question: And the GI50 [50]?
Answer: 45 µM (inactive)

Question: And the GI50 [51]?
Answer: 72.8 µM (inactive)

Question: What about the GI50 [52] of the same molecule?
Answer: > 100 µM (inactive)

Question: And the GI50 [53]?
Answer: > 64.6 µM (inactive)

Question: And the GI50 [54]?
Answer: 33.2 µM (inactive)

Question: And the GI50 [55]?
Answer: 63.5 µM (inactive)

Question: And the GI50 [56]?
Answer: > 48.4 µM (inactive)

Question: What about the GI50 [57] of the same molecule?
Answer: 18.5 µM (inactive)
